Patent publication US10941157B2, “Pesticidal compositions and uses thereof” (Gilead Apollo, LLC, priority 2015, dated 2021)
In brackets after ≈: the same amount, converted by molar mass. Where two headings read alike, the source gives them in different places.

Experiments:
Format in all cases: cell-based
Botrtyis cinerea (Bc) = assay: In vitro pathogen growth inhibition assay, Bc; conditions: 48 h
In short: (§1)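 Spores in 17% V8 liquid medium, or 1.5 mm Rs mycelial plugs in ¼ PDB, incubated with compound; final concentration checked by OD600 for precipitation. OD readings at 24 and 48 h, blank-subtracted, plus visual ratings; value is concentration giving ≥90% growth inhibition.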

[1] = system: Collectotrichum graminicola (Cg); assay: In vitro pathogen growth inhibition assay, Cg; conditions: 48 h
In short: as §1

Diplodia maydis (Dm) = assay: In vitro pathogen growth inhibition assay, Dm; conditions: Stenocarpella maydis, 48 h
In short: (§2)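 Value reported is the compound concentration reaching ≥90% growth inhibition, from OD readings at 24 and 48 h after blank subtraction, confirmed visually. Inoculum was spores diluted in 17% V8 medium, except Rs, using 1.5 mm mycelial plugs in ¼ PDB; actual compound concentration corrected via OD600.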

[2] = system: Fusarium moniliforme (Fm); assay: In vitro pathogen growth inhibition assay, Fm; conditions: Fusarium verticillioides
In short: as §1

[3] = system: Fusarium virguliforme (Fv); assay: In vitro pathogen growth inhibition assay, Fv
In short: as §2

[4] = system: Phytophthora capsici (Pc); assay: In vitro pathogen growth inhibition assay, Pc; conditions: 48 h
In short: as §2

Rhizoctonia solani (Rs) = assay: In vitro pathogen growth inhibition assay, Rs (mycelial plugs); conditions: Rhizoctonia solani, 48 h
In short: as §2

Septoria tritici (St) = assay: In vitro pathogen growth inhibition assay, St; conditions: Zymoseptoria tritici, 48 h
In short: as §1

[5] = ≥90% growth inhibition, 48 hours, vs 2% DMSO control, read-out: Compound Concentration (ppm) sufficient for ≥90% inhibition of Bc
[6] = ≥90% growth inhibition, 48 hours, vs 2% DMSO control, read-out: Compound Concentration (ppm) sufficient for ≥90% inhibition of Cg
[7] = ≥90% growth inhibition, 48 hours, vs 2% DMSO control, read-out: Compound Concentration (ppm) sufficient for ≥90% inhibition of Dm
[8] = ≥90% growth inhibition, 48 hours, vs 2% DMSO control, read-out: Compound Concentration (ppm) sufficient for ≥90% inhibition of Fm
[9] = ≥90% growth inhibition, 48 hours, vs 2% DMSO control, read-out: Compound Concentration (ppm) sufficient for ≥90% inhibition of Fv
[10] = ≥90% growth inhibition, 48 hours, vs 2% DMSO control, read-out: Compound Concentration (ppm) sufficient for ≥90% inhibition of Pc
[11] = ≥90% growth inhibition, mycelial plugs, 48 hours, vs 2% DMSO control, read-out: Compound Concentration (ppm) sufficient for ≥90% inhibition of Rs
[12] = ≥90% growth inhibition, 48 hours, vs 2% DMSO control, read-out: Compound Concentration (ppm) sufficient for ≥90% inhibition of St
[13] = concentration sufficient to ≥90% inhibition of growth, 48 hours vs 2% DMSO control, read-out: Compound Concentration (ppm) for ≥90% inhibition, Bc
[14] = concentration sufficient to ≥90% inhibition of growth, 48 hours vs 2% DMSO control, read-out: Compound Concentration (ppm) for ≥90% inhibition, Cg
[15] = concentration sufficient to ≥90% inhibition of growth, 48 hours vs 2% DMSO control, read-out: Compound Concentration (ppm) for ≥90% inhibition, Dm
[16] = concentration sufficient to ≥90% inhibition of growth, 48 hours vs 2% DMSO control, read-out: Compound Concentration (ppm) for ≥90% inhibition, Fm
[17] = concentration sufficient to ≥90% inhibition of growth, 48 hours vs 2% DMSO control, read-out: Compound Concentration (ppm) for ≥90% inhibition, Fv
[18] = concentration sufficient to ≥90% inhibition of growth, 48 hours vs 2% DMSO control, read-out: Compound Concentration (ppm) for ≥90% inhibition, Pc
[19] = concentration sufficient to ≥90% inhibition of growth, 48 hours vs 2% DMSO control, read-out: Compound Concentration (ppm) for ≥90% inhibition, Rs
[20] = concentration sufficient to ≥90% inhibition of growth, 48 hours vs 2% DMSO control, read-out: Compound Concentration (ppm) for ≥90% inhibition, St

SMILES | IC90 (Botrtyis cinerea (Bc); [5]) | IC90 [1, 6] | IC90 (Diplodia maydis (Dm); [7]) | IC90 [2, 8] | IC90 [3, 9] | IC90 [4, 10] | IC90 (Rhizoctonia solani (Rs); [11]) | IC90 (Septoria tritici (St); [12]) | IC90 (Botrtyis cinerea (Bc); [13]) | IC90 [1, 14] | IC90 (Diplodia maydis (Dm); [15]) | IC90 [2, 16] | IC90 [3, 17] | IC90 [4, 18] | IC90 (Rhizoctonia solani (Rs); [19]) | IC90 (Septoria tritici (St); [20])
CNC(=O)C(C)(C)n1c(=O)c2c(C)c(-n3nccn3)sc2n(C[C@H](OCCC#N)c2ccccc2OC)c1=O [Compound I-209] | 2 µg/mL (≈ 3.63 µM) | 50 µg/mL (≈ 90.6 µM) | ≥ 10 µg/mL | 0.08 µg/mL (≈ 0.145 µM) | 10 µg/mL (≈ 18.1 µM) | > 50 µg/mL | 0.08 µg/mL (≈ 0.145 µM) | > 50 µg/mL | – | – | – | – | – | – | – | –
COc1ccc(F)cc1[C@@H](O)Cn1c(=O)n(C(C)(C)C(=O)N2CCCC2)c(=O)c2c(C)c(-n3nccn3)sc21 [Compound I-214] | 2 µg/mL (≈ 3.59 µM) | 2 µg/mL (≈ 3.59 µM) | ≥ 10 µg/mL | 0.4 µg/mL (≈ 0.719 µM) | 2 µg/mL (≈ 3.59 µM) | > 50 µg/mL | 0.08 µg/mL (≈ 0.144 µM) | > 50 µg/mL | – | – | – | – | – | – | – | –
COc1ccccc1[C@@H](O)Cn1c(=O)n(C(C)(C)C(=O)N2CCCC2)c(=O)c2c(C)c(-n3nccn3)sc21 [Compound I-215] | – | – | – | – | – | – | – | – | 10 µg/mL (≈ 18.6 µM) | 50 µg/mL (≈ 92.8 µM) | > 50 µg/mL | 10 µg/mL (≈ 18.6 µM) | 10 µg/mL (≈ 18.6 µM) | > 50 µg/mL | 0.08 µg/mL (≈ 0.149 µM) | > 50 µg/mL
COc1ccc(F)cc1[C@@H](O)Cn1c(=O)n([C@@H](C)C(=O)N2CCCC2)c(=O)c2c(C)c(-n3nccn3)sc21 [Compound I-218] | 10 µg/mL (≈ 18.4 µM) | 10 µg/mL (≈ 18.4 µM) | 50 µg/mL (≈ 92.2 µM) | 2 µg/mL (≈ 3.69 µM) | 2 µg/mL (≈ 3.69 µM) | ≥ 50 µg/mL | 2 µg/mL (≈ 3.69 µM) | > 50 µg/mL | – | – | – | – | – | – | – | –
CCOC(=O)c1sc2c(c1C)c(=O)n([C@@H](C)C(=O)NC(C)C)c(=O)n2C[C@H](OCCC#N)c1cc(F)ccc1OC [Compound I-219] | 2 µg/mL (≈ 3.4 µM) | 10 µg/mL (≈ 17 µM) | > 10 µg/mL | 0.4 µg/mL (≈ 0.68 µM) | ≥ 10 µg/mL | > 50 µg/mL | > 50 µg/mL | > 50 µg/mL | – | – | – | – | – | – | – | –
COc1ccc(F)cc1[C@@H](O)Cn1c(=O)n(C(C)(C)C(N)=O)c(=O)c2c(C)c(-n3nccn3)sc21 [Compound I-221] | – | – | – | – | – | – | – | – | 10 µg/mL (≈ 19.9 µM) | 50 µg/mL (≈ 99.5 µM) | > 50 µg/mL | 10 µg/mL (≈ 19.9 µM) | 50 µg/mL (≈ 99.5 µM) | > 50 µg/mL | > 50 µg/mL | > 50 µg/mL
COc1ccc(F)cc1[C@@H](O)Cn1c(=O)n([C@H](C)C(=O)N2CCCC2)c(=O)c2c(C)c(-n3nccn3)sc21 [Compound I-222] | 2 µg/mL (≈ 3.69 µM) | 2 µg/mL (≈ 3.69 µM) | 10 µg/mL (≈ 18.4 µM) | 0.4 µg/mL (≈ 0.737 µM) | 0.4 µg/mL (≈ 0.737 µM) | > 50 µg/mL | 0.4 µg/mL (≈ 0.737 µM) | 50 µg/mL (≈ 92.2 µM) | – | – | – | – | – | – | – | –
CCOC(=O)c1sc2c(c1C)c(=O)n(C(C)(C)C(=O)N1CCCC1)c(=O)n2C[C@H](O)c1cc(F)ccc1OC [Compound I-224] | 2 µg/mL (≈ 3.56 µM) | 10 µg/mL (≈ 17.8 µM) | > 50 µg/mL | 2 µg/mL (≈ 3.56 µM) | 2 µg/mL (≈ 3.56 µM) | > 50 µg/mL | 0.08 µg/mL (≈ 0.142 µM) | > 50 µg/mL | – | – | – | – | – | – | – | –
CCOC(=O)c1sc2c(c1C)c(=O)n([C@@H](C)C(=O)N1CCCC1)c(=O)n2C[C@H](OCCC#N)c1cc(F)ccc1OC [Compound I-225] | 10 µg/mL (≈ 16.6 µM) | > 50 µg/mL | > 10 µg/mL | 2 µg/mL (≈ 3.33 µM) | ≥ 50 µg/mL | > 50 µg/mL | 10 µg/mL (≈ 16.6 µM) | > 50 µg/mL | – | – | – | – | – | – | – | –
CCOC(=O)c1sc2c(c1C)c(=O)n([C@H](C)C(=O)N1CCCC1)c(=O)n2C[C@H](OCCC#N)c1cc(F)ccc1OC [Compound I-226] | 2 µg/mL (≈ 3.33 µM) | 2 µg/mL (≈ 3.33 µM) | ≥ 2 µg/mL | 0.08 µg/mL (≈ 0.133 µM) | 2 µg/mL (≈ 3.33 µM) | > 50 µg/mL | 0.08 µg/mL (≈ 0.133 µM) | > 50 µg/mL | – | – | – | – | – | – | – | –
CCOC(=O)c1sc2c(c1C)c(=O)n([C@@H](C)C(N)=O)c(=O)n2C[C@H](OCCC#N)c1cc(F)ccc1OC [Compound I-227] | – | – | – | – | – | – | – | – | 50 µg/mL (≈ 91.5 µM) | > 50 µg/mL | > 50 µg/mL | 10 µg/mL (≈ 18.3 µM) | > 50 µg/mL | > 50 µg/mL | 0.4 µg/mL (≈ 0.732 µM) | > 50 µg/mL
CCOC(=O)c1sc2c(c1C)c(=O)n([C@H](C)C(N)=O)c(=O)n2C[C@H](OCCC#N)c1cc(F)ccc1OC [Compound I-228] | – | – | – | – | – | – | – | – | 10 µg/mL (≈ 18.3 µM) | > 50 µg/mL | > 50 µg/mL | 10 µg/mL (≈ 18.3 µM) | > 50 µg/mL | > 50 µg/mL | 2 µg/mL (≈ 3.66 µM) | > 50 µg/mL
CCOC(=O)c1sc2c(c1C)c(=O)n([C@@H](C)C(=O)N(C)C(C)C)c(=O)n2C[C@H](OCCC#N)c1cc(F)ccc1OC [Compound I-230] | 2 µg/mL (≈ 3.32 µM) | 10 µg/mL (≈ 16.6 µM) | ≥ 10 µg/mL | 0.4 µg/mL (≈ 0.664 µM) | 0.4 µg/mL (≈ 0.664 µM) | > 50 µg/mL | 0.08 µg/mL (≈ 0.133 µM) | ≥ 10 µg/mL | – | – | – | – | – | – | – | –
CCNC(=O)C(C)(C)n1c(=O)c2c(C)c(-n3cccn3)sc2n(C[C@H](OCCC#N)c2ccccc2OC)c1=O [Compound I-232] | 10 µg/mL (≈ 17.7 µM) | 10 µg/mL (≈ 17.7 µM) | 50 µg/mL (≈ 88.5 µM) | 2 µg/mL (≈ 3.54 µM) | 0.4 µg/mL (≈ 0.708 µM) | > 50 µg/mL | 2 µg/mL (≈ 3.54 µM) | > 50 µg/mL | – | – | – | – | – | – | – | –
CCNC(=O)C(C)(C)n1c(=O)c2c(C)c(-n3cccn3)sc2n(C[C@H](OCCC#N)c2cc(F)ccc2OC)c1=O [Compound I-235] | 2 µg/mL (≈ 3.43 µM) | 2 µg/mL (≈ 3.43 µM) | ≥ 2 µg/mL | 0.4 µg/mL (≈ 0.687 µM) | 2 µg/mL (≈ 3.43 µM) | > 50 µg/mL | 2 µg/mL (≈ 3.43 µM) | > 50 µg/mL | – | – | – | – | – | – | – | –
COc1ccccc1[C@H](Cn1c(=O)n([C@H](C)C(=O)N(C)C(C)C)c(=O)c2c(C)c(-n3nccn3)sc21)OCCC#N [Compound I-238] | 2 µg/mL (≈ 3.45 µM) | 10 µg/mL (≈ 17.3 µM) | 10 µg/mL (≈ 17.3 µM) | 2 µg/mL (≈ 3.45 µM) | 10 µg/mL (≈ 17.3 µM) | > 50 µg/mL | 10 µg/mL (≈ 17.3 µM) | > 50 µg/mL | – | – | – | – | – | – | – | –
